Like-named read-outs stand apart in the source and are kept apart here. Each block holds one compound with its values, some of them ahead of it.
Legend:
[1] = thiol, cited from earlier work
RSK2 CTD = RSK2 CTD (Mus musculus, UniProt P18654); conditions: after 4 hours, guanidine
endogenous RSK1 and RSK2 = assay: RSK1/2 occupancy in MDA-MB-231 cells by competitive labeling with BODIPY-FMK; format: cell-based; conditions: 0.1 and 1.0 μM, 2 h

Compound: OCCS [BME, β-mercaptoethanol]
pKa ([1]; ref [34]): 9.6

% dissociation / recovered from RSK2 after unfolding (RSK2 CTD): ~ 2%
Compound: COc1cc(-c2n[nH]c3ccc(C=C(C#N)n4cccn4)cc23)cc(OC)c1OC [S3]

Compound: Cc1ccc(-c2c(C=C(C#N)c3ccncc3)n(CCCO)c3ncnc(N)c23)cc1 [compound 17]
Labeling of RSK1/2 by BODIPY-FMK in pretreated cells (endogenous RSK1 and RSK2): less effective

Compound: NCCS [cysteamine]
pKa ([1]; ref [36]): 8.4

— PMC4160273 (Journal of the American Chemical Society, 2014)
